Key:
Assay type in all cases: cell-based
mouse primary astrocytes [1] = experiment: NO production in mouse primary astrocytes stimulated with LPS + interferon-gamma; details: LPS 100 ng/ml + interferon-gamma 50 unit/ml, oligonucleotide after 2 hours, FIG. 6
Protocol: (§1) The prepared astrocytes were treated with LPS (100 ng/ml)+interferon-gamma (50 unit/ml) for inflammatory stimulation, and allowed to stand for 2 hours, and then treated with the oligonucleotide (15 bp Oligo25, SEQ ID NO: 11) to confirm the amount of NO produced and the expression amount of cytokines.

[2] = system: mouse primary chondrocytes; experiment: Osteoarthritis marker gene expression in IL-1β-treated mouse primary chondrocytes (real-time PCR); details: oligonucleotide 10 ng/mL 2 hours, then IL-1β 6 hours, FIG. 8
[3] = system: BV2 cells, a mouse microglia cell line; experiment: NO production in BV2 microglia stimulated with LPS + interferon-gamma; details: LPS 100 ng/ml + interferon-gamma 50 unit/ml, oligonucleotide after 2 hours, FIG. 4
mouse primary astrocytes [4] = experiment: Cytokine gene expression in mouse primary astrocytes (PCR); details: LPS 100 ng/ml + interferon-gamma 50 unit/ml, FIG. 7
Protocol: as §1
The expression amount of cytokines was confirmed by measuring the expression level of the cytokine genes using the conventional PCR analysis described in Example 5 above, and the concentration of cytokine proteins in the cell culture using Western blotting.

[5] = system: BV2 cells, a mouse microglia cell line; experiment: Pro-inflammatory cytokine gene expression in BV2 microglia (PCR); details: LPS 100 ng/ml + interferon-gamma 50 unit/ml, FIG. 5
Protocol: The expression amount of cytokines was confirmed by measuring the expression level of cytokine genes in the BV2 cells using conventional PCR analysis, and the specific method is as follows. Total ribonucleic acid (RNA) was extracted from the treated cells using a TRIZOL reagent (Invitrogen, Carlsbad, Calif., United States). Reverse transcription (RT) was carried out using Superscript II reverse transcriptase (Invitrogen) and oligo (dT) primers. PCR amplification was carried out in a C1000 Touch Thermal Cycler (Bio-Rad, Richmond, Calif., United States) at an annealing temperature of 55-60° C. in 25-32 cycles using specific primer sets. The PCR product having ethidium bromide was electrophoresed on a 1% agarose gel and irradiated with ultraviolet rays to observe bands.

AGG GAG GGA GGG AGG (DNA AGGGAGGGAGGGAGG; listed as DNA, chemistry not given here) [15 bp Oligo25, 15 bp oligonucleotide with ratio of adenosine and guanosine 1:3]
NO production (mouse primary astrocytes [1]): NO production was reduced in proportion to the treatment concentration | expression level of ADAMTS5 gene [2]: increased | expression level of MMP3 gene [2]: reduced | expression level of MMP9 gene [2]: reduced | expression level of MMP12 gene [2]: reduced | expression level of MMP13 gene [2]: reduced | NO production [3]: NO production was reduced in proportion to the treatment concentration | expression level of IL-1β gene (mouse primary astrocytes [4]): significantly reduced | expression level of IL-6 gene (mouse primary astrocytes [4]): significantly reduced | expression level of TNF-α gene (mouse primary astrocytes [4]): significantly reduced | expression level of anti-inflammatory cytokine IL-10 gene (mouse primary astrocytes [4]): significantly increased | expression level of IL-1β gene [5]: significantly reduced | expression level of IL-6 gene [5]: significantly reduced | expression level of TNF-α gene [5]: significantly reduced
